Columns and labels:
[1] = system: EGFR-mutant NSCLC PC-9 cells; experiment: Apoptosis (caspase-3/7, IncuCyte) in combination with EGFR inhibitor Osimertinib; assay type: cell-based
Method: Apoptosis was detected by CellEvent Caspase 3/7 Green ReadyProbes Reagent (ThermoFisher), a fluorogenic indicator of activated caspase-3/7. Cell death (apoptsis) and cell growth (phase confluence) over time were captured by IncuCyte live cell imaging system (Essen Bioscience) and quantified by IncuCyte S3 software (Essen Bioscience). Apoptotic Index was calculated by dividing apoptosis signal with phase confluence.

[2] = system: mesothelioma cell line NCI-H226; experiment: 72H TEAD Proliferation Assay (Cell Titer-Glo 2.0); assay type: cell-based; conditions: Homo sapiens, CTG 2.0, cell line not given in Table 1 (NCI-H226 TEAD-responsive, NCI-H28 non-responsive counter-screen)
Method: 72H TEAD Proliferation Assay.
The effect of TEAD inhibition on cell proliferation was assayed using Cell Titer Glo (CTG) 2.0 to measure response in mesothelioma cell lines NCI-H226 (ATCC, #CRL-5826) and NCI-H28 (ATCC, #CRL-5820).
The 72H TEAD Proliferation assay utilizes Cell Titer-Glo 2.0 (Promega, #G9243) to measure the proliferation of cells in the presence or absence of compound. Cell Titer-Glo 2.0 determines the amount of viable cells by quantifying ATP (an indication of metabolically active cells). It utilizes the conversion of Luciferin to Oxyluciferin and a luminescent signal with the use of ATP to report the quantity of viable cells in culture. Within cells that are continually growing, ATP is being synthesized to meet their metabolic demands, meanwhile the opposite is true for cells that are dying or slowing down their proliferation and either no longer using ATP or are using less, respectively. The NF2-deficient NCI-H226 has been genetically validated as a cell line that is sensitive to TEAD inhibition. The NF2-wild type NCI-H28 has been genetically validated as a cell line that is not sensitive to TEAD inhibition and grows independently of TEAD activity.
Compounds were screened against the responsive NCI-H226 cell line to assess the compounds' ability to inhibit TEAD and cell growth. Compounds were also screened against the non-responsive NCI-H28 cell line to ascertain whether the inhibition of cell growth was due to inhibition of the target TEAD or whether the inhibition was due to off-target cytotoxicity.
Both NCI-H226 and NCI-H28 cells were grown at 37° C. with 5% CO2 using Growth Medium 1.
Anti-proliferative effect of compounds that inhibits TEAD activity measured by CTG
1) Assay ready plates (ARPs) were prepared by Echo acoustic liquid handler. For each compound, duplicate of 10-point half-log dilution series were dispensed in a 384-well microplate (Corning 3571).
3) Before use, ARPs were allowed to warm up to room temperature for 30 min.
4) ARPs were spun for 5 minutes at 1500RPM before removing the plate seals.
5) NCI-H226 or NCI-H28 cells were harvested from culture in Assay Medium 1 and the multidrop Combi reagent dispenser was used to seed cells at 500 cells per 50ul in each well of the ARPs and one Corning 3571 plate without compounds for Time 0 (TO) readout.
6) The TO plate was incubated for 2 hours at 37° C. with 5% CO2 to allow cells to settle, then the CTG Assay was performed.
7) All ARPs were incubated for 72 hours at 37° C. with 5% CO2, then the CTG Assay was performed for Time 72H (T72) readout.
8) CTG Assay: Bravo liquid handler (Agilent) was used to add 25ul of CTG 2.0 to all columns of the plate except for Column 24, which was used to subtract out the background. After CTG addition, plates were placed on shaker at 800RPM for 15 minutes at room temperature and kept in the dark. Luminescence was measured using EnVision multilabel plate reader with ultra-sensitive detection module.
9) Data Analysis: First background luminescence (no CTG wells) was subtracted from luminescence reading of all wells, then TO luminescence was subtracted from T72 luminescence. To compare anti-proliferative effect of compounds, GI50 was obtained by fitting dose response curves with nonlinear regression curve fit.

[3] = target: T1, TEAD1 protein (YAP Binding Domain) (Homo sapiens, UniProt P28347); experiment: biochemical
Method: Compound Displacement Assay.
(§1) A TEAD1 lipid pocket displacement assay was carried out according to the following protocol. Purified His-tagged TEAD1 protein (YAP Binding Domain) was pre-mixed with a Cy5-probe (Cy5-conjugated to a small molecule that binds in the TEAD1 lipid pocket) and Terbium-labeled anti-His antibody (Cisbio Cat 61HI2TLB). The binding of the Cy5-probe to anti-His-Tb/His-tag TEAD1 complex yielded a TR-FRET signal. […] After 60 minutes incubation at room temperature of compounds with the His-TEAD1/anti-His-Tb/Cy5-probe complex, the plate was read on a plate reader (BMG ClarioStar Cat 430-1300) using TR-FRET mode with wavelengths of 665 nm/620 nm. The potency of compounds as TEAD1 lipid pocket binders was determined by IC50 value generated using a non-linear 4 parameter curve fit.

[4] = target: T1, TEAD1 protein (YAP Binding Domain); experiment: TEAD1 lipid pocket compound displacement assay (CDA, TR-FRET); conditions: read-out: CDA IC50, displacement of Cy5-probe from His-TEAD1, 60 minutes at room temperature
Method: Compound Displacement Assay.
as §1

T1 sequence (P28347 167-426 limits assumed): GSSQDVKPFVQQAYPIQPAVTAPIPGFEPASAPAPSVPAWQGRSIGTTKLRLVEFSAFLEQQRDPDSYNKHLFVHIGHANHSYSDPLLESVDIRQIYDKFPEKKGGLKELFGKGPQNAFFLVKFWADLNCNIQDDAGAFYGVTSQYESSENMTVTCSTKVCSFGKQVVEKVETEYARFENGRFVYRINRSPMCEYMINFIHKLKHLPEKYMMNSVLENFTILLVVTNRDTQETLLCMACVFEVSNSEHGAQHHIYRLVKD

SMILES | GI50 [2] | IC50 [3] | further results
COc1cc(N2CCC(C(F)(F)F)CC2)c2ncc(C(=O)N[C@H](C)CO)cc2c1 [Compound I-1, (R)-N-(1-hydroxypropan-2-yl)-6-methoxy-8-(4-(trifluoromethyl)piperidin-1-yl)quinoline-3-carboxamide] | 500 to 1000 nM | 150 to 300 nM | Fold Change over DMSO at 48 hrs (apoptotic index) ([1]; I-1 (10 μM) alone): 1.0; Fold Change over DMSO at 48 hrs (apoptotic index) ([1]; Osimertinib (100 nM) + I-1 (0.37 μM), 24 h Osimertinib pre-treatment): 4.1; Fold Change over DMSO at 48 hrs (apoptotic index) ([1]; Osimertinib (100 nM) + I-1 (1.1 μM), 24 h Osimertinib pre-treatment): 5.4; Fold Change over DMSO at 48 hrs (apoptotic index) ([1]; Osimertinib (100 nM) + I-1 (10 μM), 24 h Osimertinib pre-treatment): 7.0
COc1ccc2c(N3CCC(C(F)(F)F)CC3)nc(C(N)=O)cc2c1 [Compound 66] | 1000 to 5000 nM |  | IC50 [4]: < 150 nM
COc1cc(N2CCC(C(F)(F)F)CC2)c2ncc(C(=O)N[C@@H](CO)C(C)(C)C)cc2c1 [Compound I-40, (R)-N-(1-hydroxy-3,3-dimethylbutan-2-yl)-6-methoxy-8-(4-(trifluoromethyl)piperidin-1-yl)quinoline-3-carboxamide] | 500 to 1000 nM | 150 to 300 nM | 
C[C@H](NC(=O)c1ccc2c(N3CCC(C(F)(F)F)CC3)nccc2c1)c1ccccn1 [Compound I-51, (S)-N-(1-(Pyridin-2-yl)ethyl)-1-(4-(trifluoromethyl)piperidin-1-yl)isoquinoline-6-carboxamide] | ≤ 500 nM | < 150 nM | 
CC(CO)NC(=O)c1ccc2c(OCC3CCC(F)(F)CC3)cccc2c1 (stereo not drawn) [Compound I-22, 5-((4,4-Difluorocyclohexyl)methoxy)-N-(1-hydroxypropan-2-yl)-2-naphthamide] | ≤ 500 nM | 150 to 300 nM | 
C#Cc1ccc(-c2cccc3cc(C(=O)N[C@@H](C)c4ccccn4)cnc23)cc1 [I′-29, (S)-8-(4-ethynylphenyl)-N-(1-(pyridin-2-yl)ethyl)quinoline-3-carboxamide] | 1000 to 5000 nM | < 150 nM | 
Cc1cc2cc(C(=O)N[C@H](C)CO)ccc2c(N2CCC(C(F)(F)F)CC2)n1 [Compound I-48, (R)-N-(1-hydroxypropan-2-yl)-3-methyl-1-(4-(trifluoromethyl)piperidin-1-yl)isoquinoline-6-carboxamide] | ≤ 500 nM | 150 to 300 nM | 
COc1cc(N2CCC(C(F)(F)F)CC2)c2ncc(C(=O)N[C@@H](C)c3ccccn3)cc2c1 [Compound I-37, (S)-6-methoxy-N-(1-(pyridin-2-yl)ethyl)-8-(4-(trifluoromethyl)piperidin-1-yl)quinoline-3-carboxamide] | ≤ 500 nM | 150 to 300 nM | 
CC[C@H](CO)NC(=O)c1cnc2c(N3CCC(C(F)(F)F)CC3)cc(OC)cc2c1 [Compound I-13, (R)-N-(1-hydroxybutan-2-yl)-6-methoxy-8-(4-(trifluoromethyl)piperidin-1-yl)quinoline-3-carboxamide] | ≤ 500 nM | < 150 nM | 
COc1ccc2c(N3CCC(C(F)(F)F)CC3)nc(C(=O)O)cc2c1 [Compound 68, 6-methoxy-1-(4-(trifluoromethyl)piperidin-1-yl)isoquinoline-3-carboxylic acid] | > 5000 nM | > 500 nM | 
COc1cc(-c2ccc(OC(C)(C)C)cc2)c2ncc(C(=O)N[C@H](C)CO)cc2c1 [Compound I-16, (R)-8-(4-(tert-butoxy)phenyl)-N-(1-hydroxypropan-2-yl)-6-methoxyquinoline-3-carboxamide] | 1000 to 5000 nM | 150 to 300 nM | 
C=CC(=O)Nc1cc(Nc2nccc(-c3cn(C)c4ccccc34)n2)c(OC)cc1N(C)CCN(C)C [Osimertinib, reference compound] |  |  | Fold Change over DMSO at 48 hrs (apoptotic index) ([1]; Osimertinib (100 nM) alone): 2.6
COc1cc(N2CCC(C(F)(F)F)CC2)c2ncc(C(=O)N[C@H](C)C(=O)O)cc2c1 [Compound I-42, (6-Methoxy-8-(4-(trifluoromethyl)piperidin-1-yl)quinoline-3-carbonyl)-D-alanine] | > 5000 nM | 150 to 300 nM | 
CCOc1cc2cc(C(=O)N[C@H](C)CO)ccc2c(N2CCC(C(F)(F)F)CC2)n1 [Compound I-62, (R)-3-ethoxy-N-(1-hydroxypropan-2-yl)-1-(4-(trifluoromethyl)piperidin-1-yl)isoquinoline-6-carboxamide] | ≤ 500 nM | < 150 nM | 
COc1cc(-c2ccc(C(C)(C)C)cc2)c2ncc(C(=O)N[C@H](C)CO)cc2c1 [I′-33, (R)-8-(4-(tert-butyl)phenyl)-N-(1-hydroxypropan-2-yl)-6-methoxyquinoline-3-carboxamide] | 500 to 1000 nM | 150 to 300 nM | 

Source: patent US20230053649A1 (Cedilla Therapeutics, Inc., priority 2021, published 2023)
